These results are taken from patent US4722892A, “Monoclonal antibodies against metal chelates” (priority 1984, dated 1988).

The test system of data set [1] is monoclonal antibody CHB235. The data set is described as follows: Association constants of metal chelates with monoclonal antibody CHB235 by equilibrium dialysis (method of Eisen), displacement of In(III)-(L)-aminobenzyl EDTA. In kind it is binding, BALB/c mice. The settings on record: dialysis 24h, 37°, pH 7. From the text: (§1) Table I below sets forth the association constants of the two monoclonal antibodies described in Example II for a number of chelates. In Part A, the relative affinities of the antibodies for aminobenzyl EDTA complexes of In(III) and other ions are shown. In Part B, the binding constants of the antibodies for In(III) complexes with other chelating agents are shown. The metals selected for comparison were trivalent ions similar to In(III) and divalent ions whose EDTA complexes form structures similar to that of an In-EDTA complex. The binding constants for the chelates were determined by the method of Eisen, Meth. Med. Res., 10, 106 (1964) by dialysis of the antibody and metal chelates to near equilibrium (24h) at 37° in 0.05M 2-hydroxyethyl-piperazine-ethanesulfonate, 0.lM NaCl, 0.1% NaN3 and 0.1% bovine serum albumin at pH 7. The concentration of antibody binding sites inside the dialysis bag was 10^-7 M, and the concentration of free In(III)-(L)-aminobenzyl EDTA was in the same range.
(§2) Known amounts of another chelate were added to the solution after equilibrium until roughly half of the bound indium chelate had been displaced at equilibrium.
Background: In equilibrium dialysis free small molecules cross a membrane that holds back macromolecules.

Data set [2] concerns monoclonal antibody CHA255. Kind of data set: Association constants of metal chelates with monoclonal antibody CHA255 by equilibrium dialysis (method of Eisen), displacement of In(III)-(L)-aminobenzyl EDTA. In kind it is binding, BALB/c mice. The conditions noted are these: for Kd: dialysis 24h, 37°, pH 7.
Excerpt: as §1, §2

For data set [3] the following is noted: metal-EDTA chelate (not the L-Benzyl-EDTA chelate); from Sillen and Martell / Martell and Smith; cited from earlier work.
Setting [4] is: Table 1 Part B, indium chelates with different chelators, read-out: K A^CHA235 (antibody binding constant for each indium chelate) (converted).
[5] abbreviates: Table 1 Part B, indium chelates with different chelators, read-out: K A^CHA255 (antibody binding constant for each indium chelate) (converted).

Read-outs that look alike come from different tables or passages of the source.

For `O=C(O)CN(CC(=O)O)CC(Cc1ccccc1)N(CC(=O)O)CC(=O)O` [D-Benzyl-EDTA], the Kd was 27.8 nM in data set [1] (setting [4]) and 15.9 nM in data set [2] (setting [5]).
For `O=C(O)CN(CCN(CC(=O)O)CC(=O)O)CC(=O)O` [EDTA], in that order: 7.69 nM and 5.88 nM.
For `O=C(O)CN(CCO)CCN(CC(=O)O)CC(=O)O` [HED3A], in that order: 25 nM and 23.8 nM.
For the compound In(III)-(L)-aminobenzyl EDTA, the Kd was 9.09 nM in data set [1] (Table 1 Part A, coefficient of variation on next line, read-out: K A^CHB235 (antibody binding constant for metal-L-Benzyl-EDTA chelate) (converted)); 9.09 nM in data set [1] (setting [4]); 0.25 nM in data set [2] (Table 1 Part A, coefficient of variation in parentheses, read-out: K A^CHA255 (antibody binding constant for metal-L-Benzyl-EDTA chelate) (converted)); 0.25 nM in data set [2] (setting [5]). Also, the “affinity (KA)” value in data set [2] (summary statement, antibody not named) is “greater than 10^9 M^-1”. Moreover, the “log K S^EDTA(M) (logarithm of the stability constant for each metal-EDTA chelate)” value in data set [3] is listed as 25.0.
